Source: ChEMBL document CHEMBL1697781, “Assessment of the health effects of chemicals in humans: II. Construction of an adverse effects database for QSAR modeling” (Curr Drug Discov Technol, 2004)

test system: Hepatotoxicity; assay: FDA HLAED, liver enzyme composite activity; details: human
Wherever GGT Increase - Index Value is given: reference of the scale not given here.
Wherever LDH Increase - Index Value is given: reference of the scale not given here.

Structure (SMILES)	Composite Activity - Active	Composite Activity - Marginal	Composite Activity - Score
COc1ccccc1OCCNCC(O)COc1cccc2[nH]c3ccccc3c12 (configuration not stated) [CARVEDILOL]	0	0	Inactive
N[C@@H](C(=O)N[C@@H]1C(=O)N2C(C(=O)O)=C(Cl)CS[C@H]12)c1ccccc1 [CEFACLOR ANHYDROUS]	1	1	Inactive
CC1=C(C(=O)O)N2C(=O)[C@@H](NC(=O)[C@H](N)c3ccc(O)cc3)[C@H]2SC1 [CEFADROXIL]	0	0	Inactive
Cn1nnnc1SCC1=C(C(=O)[O-])N2C(=O)[C@@H](NC(=O)[C@H](OC=O)c3ccccc3)[C@H]2SC1.[Na+] [CEFAMANDOLE NAFATE]	0	0	Inactive

test system: Hepatotoxicity; assay: FDA HLAED, alkaline phosphatase increase; details: human

Structure (SMILES)	Alkaline Phosphatase Increase - Activity Score	Alkaline Phosphatase Increase - Index Value	Alkaline Phosphatase Increase - Number of Reports
COc1ccccc1OCCNCC(O)COc1cccc2[nH]c3ccccc3c12 (configuration not stated) [CARVEDILOL]	Inactive	0	< 4
N[C@@H](C(=O)N[C@@H]1C(=O)N2C(C(=O)O)=C(Cl)CS[C@H]12)c1ccccc1 [CEFACLOR ANHYDROUS]	Marginally Active	3.4	>= 4
CC1=C(C(=O)O)N2C(=O)[C@@H](NC(=O)[C@H](N)c3ccc(O)cc3)[C@H]2SC1 [CEFADROXIL]	Inactive	0	< 4
Cn1nnnc1SCC1=C(C(=O)[O-])N2C(=O)[C@@H](NC(=O)[C@H](OC=O)c3ccccc3)[C@H]2SC1.[Na+] [CEFAMANDOLE NAFATE]	Inactive	0	< 4

test system: Hepatotoxicity; assay: FDA HLAED, serum glutamic oxaloacetic transaminase (SGOT) increase; details: human

Structure (SMILES)	SGOT Increase - Activity Score	SGOT Increase - Index Value	SGOT Increase - Number of Reports
COc1ccccc1OCCNCC(O)COc1cccc2[nH]c3ccccc3c12 (configuration not stated) [CARVEDILOL]	Inactive	0	< 4
N[C@@H](C(=O)N[C@@H]1C(=O)N2C(C(=O)O)=C(Cl)CS[C@H]12)c1ccccc1 [CEFACLOR ANHYDROUS]	Active	6	>= 4
CC1=C(C(=O)O)N2C(=O)[C@@H](NC(=O)[C@H](N)c3ccc(O)cc3)[C@H]2SC1 [CEFADROXIL]	Inactive	0	< 4
Cn1nnnc1SCC1=C(C(=O)[O-])N2C(=O)[C@@H](NC(=O)[C@H](OC=O)c3ccccc3)[C@H]2SC1.[Na+] [CEFAMANDOLE NAFATE]	Inactive	0	< 4

test system: Hepatotoxicity; assay: FDA HLAED, serum glutamic pyruvic transaminase (SGPT) increase; details: human

Structure (SMILES)	SGPT Increase - Activity Score	SGPT Increase - Index Value	SGPT Increase - Number of Reports
COc1ccccc1OCCNCC(O)COc1cccc2[nH]c3ccccc3c12 (configuration not stated) [CARVEDILOL]	Inactive	0	< 4
N[C@@H](C(=O)N[C@@H]1C(=O)N2C(C(=O)O)=C(Cl)CS[C@H]12)c1ccccc1 [CEFACLOR ANHYDROUS]	Inactive	2.9	>= 4
CC1=C(C(=O)O)N2C(=O)[C@@H](NC(=O)[C@H](N)c3ccc(O)cc3)[C@H]2SC1 [CEFADROXIL]	Inactive	0	< 4
Cn1nnnc1SCC1=C(C(=O)[O-])N2C(=O)[C@@H](NC(=O)[C@H](OC=O)c3ccccc3)[C@H]2SC1.[Na+] [CEFAMANDOLE NAFATE]	Inactive	0	< 4

test system: Hepatotoxicity; assay: FDA HLAED, lactate dehydrogenase (LDH) increase; details: human

Structure (SMILES)	LDH Increase - Activity Score	LDH Increase - Index Value	LDH Increase - Number of Reports
COc1ccccc1OCCNCC(O)COc1cccc2[nH]c3ccccc3c12 (configuration not stated) [CARVEDILOL]	Inactive	0	< 4
N[C@@H](C(=O)N[C@@H]1C(=O)N2C(C(=O)O)=C(Cl)CS[C@H]12)c1ccccc1 [CEFACLOR ANHYDROUS]	Inactive	0.4	>= 4
CC1=C(C(=O)O)N2C(=O)[C@@H](NC(=O)[C@H](N)c3ccc(O)cc3)[C@H]2SC1 [CEFADROXIL]	Inactive	0	< 4
Cn1nnnc1SCC1=C(C(=O)[O-])N2C(=O)[C@@H](NC(=O)[C@H](OC=O)c3ccccc3)[C@H]2SC1.[Na+] [CEFAMANDOLE NAFATE]	Inactive	0	< 4

test system: Hepatotoxicity; assay: FDA HLAED, gamma-glutamyl transferase (GGT) increase; details: human

Structure (SMILES)	GGT Increase - Activity Score	GGT Increase - Index Value	GGT Increase - Number of Reports
COc1ccccc1OCCNCC(O)COc1cccc2[nH]c3ccccc3c12 (configuration not stated) [CARVEDILOL]	Inactive	0	< 4
N[C@@H](C(=O)N[C@@H]1C(=O)N2C(C(=O)O)=C(Cl)CS[C@H]12)c1ccccc1 [CEFACLOR ANHYDROUS]	Inactive	0	< 4
CC1=C(C(=O)O)N2C(=O)[C@@H](NC(=O)[C@H](N)c3ccc(O)cc3)[C@H]2SC1 [CEFADROXIL]	Inactive	0	< 4
Cn1nnnc1SCC1=C(C(=O)[O-])N2C(=O)[C@@H](NC(=O)[C@H](OC=O)c3ccccc3)[C@H]2SC1.[Na+] [CEFAMANDOLE NAFATE]	Inactive	0	< 4
